According to patent publication US4416884A, “Piperazinylbenzoheterocyclic compounds” (Otsuka Pharmaceutical Co., Ltd., priority 1978, dated 1983):
Values after ≈ are worked out from the molar mass of the structure shown. Read-outs that look alike come from different tables or passages of the source.

What was measured:
[1] = system: Escherichia Coli NIHJ JC-2 (IFO 12734); experiment: antimicrobial activity, serial dilution method on agar plate; assay type: cell-based; details: Escherichia coli, read-out: Minimum Inhibitory Concentration
How it was run: (§1)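 Two inoculum levels used: 1×10^8 cells/ml (O.D. 660 mμ = 0.07–0.16) and a diluted 1×10^6 cells/ml preparation. Minimum inhibitory concentrations in mcg/ml read from serial dilution on Heart Infusion agar plates.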

Hafnia alvei IFO 3731 = experiment: as above; assay type: cell-based
How it was run: as §1

[2] = system: Pseudomonas aeruginosa ATCC 10145; experiment: as above; assay type: cell-based
How it was run: as §1

[3] = system: Pseudomonas aeruginosa NCTC 10490; experiment: as above; assay type: cell-based
How it was run: as §1

[4] = system: Pseudomonas putida IFO 13696; experiment: as above; assay type: cell-based
How it was run: as §1

[5] = system: Streptococcus pneumoniae Type II; experiment: as above; assay type: cell-based
How it was run: as §1

[6] = system: Streptococcus pneumoniae Type I; experiment: as above; assay type: cell-based
How it was run: as §1

[7] = system: Yersinia enterocolitica 0-5; experiment: as above; assay type: cell-based
[8] = system: Aeromonas hydrophila IFO 12658; experiment: antimicrobial activity on bacteria which cause infectious diseases in fish; assay type: cell-based
Protocol: (§2) The antimicrobial activity of the following test compounds on various test organisms listed below was determined by the serial dilution method on agar plate (Heart Infusion agar produced by Difco Co.) (see CHEMOTHERAPY 22, pp. 1126-1128 (1974)), and the minimum inhibitory concentrations (mcg/ml) obtained are shown in Table 1 below.
(§3) A sample of each test organism was prepared so that the population of the organism was 1×10^8 cells/ml (O.D. 660 mμ=0.07 to 0.16) and 1×10^6 cells/ml (which was obtained by diluting the above 1×10^8 cells/ml preparation).
(§4) In the same manner as above, the antimicrobial activity of the following compounds on various test organisms which cause infectious diseases in fish was determined.

[9] = system: Aeromonas hydrophila IFO 12981; experiment: as above; assay type: cell-based
Protocol: as §2, §3, §4

[10] = system: Aeromonas salmonicida IFO 12659; experiment: as above; assay type: cell-based
Protocol: as §2, §3, §4

[11] = system: Aeromonas salmonicida IFO 12718; experiment: as above; assay type: cell-based
Protocol: as §2, §3, §4

[12] = system: Pseudomonas fluorescens IFO 12180; experiment: as above; assay type: cell-based; details: IFO12180, read-out: Minimum Inhibitory Concentration
Protocol: as §2, §3, §4

[13] = system: Pseudomonas fluorescens IFO 12568; experiment: as above; assay type: cell-based
Protocol: as §2, §3, §4

[14] = system: Vibrio anguillarum IFO 12710; experiment: as above; assay type: cell-based
Protocol: as §2, §3, §4

[15] = system: Vibrio anguillarum IFO 13266; experiment: as above; assay type: cell-based
Protocol: as §2, §3, §4

[16] = system: Test Organism 2 (Escherichia Coli NIHJ JC-2 (IFO 12734)); experiment: influence of the addition of horse serum on the MIC; assay type: cell-based
[17] = system: Test Organism 21 (Bacillus subtilis PCI 219); experiment: as above; assay type: cell-based
[18] = inactivation ratio by human serum protein; details: 3.1 mcg/ml, 37° C.
Protocol: A 1/15 mol/l phosphate buffer was added to powder of Moni-Trol 1 (dehydrated preparation of human serum, a product of Midori Juji Co., Ltd.) to prepare a composition having the same serum protein concentration as natural human serum and this preparation was labeled "100% human serum", an aliquot of the "100% human serum" preparation was mixed with the same volume of the above buffer to prepare "50% human serum" and another aliquot was mixed with 4 times as much as its volume of the buffer to prepare "20% human serum".

[19] = read-out: Minimum Inhibitory Concentration, inoculum 1 × 10^6 cells/ml
[20] = read-out: Minimum Inhibitory Concentration, inoculum 1 × 10^8 cells/ml
[21] = read-out: Minimum Inhibitory Concentration, horse serum 0%, inoculum 10^6
[22] = read-out: Minimum Inhibitory Concentration, horse serum 0%, inoculum 10^8
[23] = read-out: Minimum Inhibitory Concentration, horse serum 10%, inoculum 10^6
[24] = read-out: Minimum Inhibitory Concentration, horse serum 10%, inoculum 10^8
[25] = read-out: Minimum Inhibitory Concentration, horse serum 20%, inoculum 10^6
[26] = read-out: Minimum Inhibitory Concentration, horse serum 20%, inoculum 10^8
[27] = read-out: Minimum Inhibitory Concentration, horse serum 40%, inoculum 10^6
[28] = read-out: Minimum Inhibitory Concentration, horse serum 40%, inoculum 10^8
[29] = inoculum 1 × 10^8 cells/ml, read-out: Minimum Inhibitory Concentration
[30] = horse serum 0%, inoculum 10^6, read-out: Minimum Inhibitory Concentration
[31] = horse serum 0%, inoculum 10^8, read-out: Minimum Inhibitory Concentration
[32] = horse serum 10%, inoculum 10^6, read-out: Minimum Inhibitory Concentration
[33] = horse serum 10%, inoculum 10^8, read-out: Minimum Inhibitory Concentration
[34] = horse serum 20%, inoculum 10^6, read-out: Minimum Inhibitory Concentration
[35] = horse serum 20%, inoculum 10^8, read-out: Minimum Inhibitory Concentration
[36] = horse serum 40%, inoculum 10^6, read-out: Minimum Inhibitory Concentration
[37] = horse serum 40%, inoculum 10^8, read-out: Minimum Inhibitory Concentration

Compound `CC1CCc2c(N3CCNCC3)ccc3c(=O)c(C(=O)O)cn1c23` (stereo not drawn) [A] has an MIC [1] of 1.6 µg/mL (≈ 4.89 µM), an MIC (Hafnia alvei IFO 3731; IFO3731, read-out: Minimum Inhibitory Concentration, inoculum 1 × 10^6 cells/ml) of 3.1 µg/mL (≈ 9.47 µM) and an MIC (Hafnia alvei IFO 3731; IFO3731, read-out: Minimum Inhibitory Concentration, inoculum 1 × 10^8 cells/ml) of 6.3 µg/mL (≈ 19.2 µM). It also gave an MIC ([2]; ATCC10145, read-out: Minimum Inhibitory Concentration, inoculum 1 × 10^6 cells/ml) of 6.3 µg/mL (≈ 19.2 µM), an MIC ([2]; ATCC10145, read-out: Minimum Inhibitory Concentration, inoculum 1 × 10^8 cells/ml) of 6.3 µg/mL (≈ 19.2 µM) and an MIC ([3]; NCTC10490, read-out: Minimum Inhibitory Concentration, inoculum 1 × 10^6 cells/ml) of 3.1 µg/mL (≈ 9.47 µM). The MIC ([3]; NCTC10490, read-out: Minimum Inhibitory Concentration, inoculum 1 × 10^8 cells/ml) was 6.3 µg/mL (≈ 19.2 µM), the MIC ([4]; IFO13696, read-out: Minimum Inhibitory Concentration, inoculum 1 × 10^6 cells/ml) was 1.6 µg/mL (≈ 4.89 µM) and the MIC ([4]; IFO13696, read-out: Minimum Inhibitory Concentration, inoculum 1 × 10^8 cells/ml) was 3.1 µg/mL (≈ 9.47 µM). For the same compound, the MIC [5, 19] was 6.3 µg/mL (≈ 19.2 µM), the MIC [5, 20] was 25 µg/mL (≈ 76.4 µM) and the MIC [6, 19] was 3.1 µg/mL (≈ 9.47 µM). The MIC [6, 20] was 12.5 µg/mL (≈ 38.2 µM), the MIC ([7]; Yersinia enterocolitica, 05, read-out: Minimum Inhibitory Concentration, inoculum 1 × 10^6 cells/ml) was 0.8 µg/mL (≈ 2.44 µM) and the MIC ([7]; Yersinia enterocolitica, 05, read-out: Minimum Inhibitory Concentration, inoculum 1 × 10^8 cells/ml) was 0.8 µg/mL (≈ 2.44 µM). It also gave an MIC ([8]; IFO12658, inoculum 10^6, read-out: Minimum Inhibitory Concentration) of 0.1 µg/mL (≈ 0.305 µM), an MIC ([8]; IFO12658, inoculum 10^8, read-out: Minimum Inhibitory Concentration) of 0.2 µg/mL (≈ 0.611 µM) and an MIC ([9]; IFO12981, inoculum 10^6, read-out: Minimum Inhibitory Concentration) of 0.2 µg/mL (≈ 0.611 µM). For the same compound, the MIC ([9]; IFO12981, inoculum 10^8, read-out: Minimum Inhibitory Concentration) was 0.2 µg/mL (≈ 0.611 µM), the MIC ([10]; IFO12659, inoculum 10^6, read-out: Minimum Inhibitory Concentration) was 0.2 µg/mL (≈ 0.611 µM) and the MIC ([10]; IFO12659, inoculum 10^8, read-out: Minimum Inhibitory Concentration) was 0.4 µg/mL (≈ 1.22 µM). It also gave an MIC ([11]; IFO12718, inoculum 10^6, read-out: Minimum Inhibitory Concentration) of 0.2 µg/mL (≈ 0.611 µM), an MIC ([11]; IFO12718, inoculum 10^8, read-out: Minimum Inhibitory Concentration) of 0.4 µg/mL (≈ 1.22 µM) and an MIC [12] of 3.1 µg/mL (≈ 9.47 µM). For the same compound, the MIC ([13]; IFO12568, read-out: Minimum Inhibitory Concentration, inoculum 10^6) was 12.5 µg/mL (≈ 38.2 µM), the MIC ([13]; IFO12568, read-out: Minimum Inhibitory Concentration, inoculum 10^8) was 25 µg/mL (≈ 76.4 µM) and the MIC ([14]; IFO12710, read-out: Minimum Inhibitory Concentration, inoculum 10^6) was 3.1 µg/mL (≈ 9.47 µM). For the same compound, the MIC ([14]; IFO12710, read-out: Minimum Inhibitory Concentration, inoculum 10^8) was 3.1 µg/mL (≈ 9.47 µM), the MIC ([15]; IFO13266, read-out: Minimum Inhibitory Concentration, inoculum 10^6) was 0.1 µg/mL (≈ 0.305 µM) and the MIC ([15]; IFO13266, read-out: Minimum Inhibitory Concentration, inoculum 10^8) was 0.2 µg/mL (≈ 0.611 µM). The MIC [16, 21] was 1.6 µg/mL (≈ 4.89 µM), the MIC [16, 22] was 1.6 µg/mL (≈ 4.89 µM) and the MIC [16, 23] was 0.8 µg/mL (≈ 2.44 µM). It also gave an MIC [16, 24] of 0.8 µg/mL (≈ 2.44 µM), an MIC [16, 25] of 0.8 µg/mL (≈ 2.44 µM) and an MIC [16, 26] of 0.8 µg/mL (≈ 2.44 µM). It also gave an MIC [16, 27] of 0.4 µg/mL (≈ 1.22 µM), an MIC [16, 28] of 0.4 µg/mL (≈ 1.22 µM) and an MIC [17, 21] of 3.1 µg/mL (≈ 9.47 µM). It also gave an MIC [17, 22] of 6.3 µg/mL (≈ 19.2 µM), an MIC [17, 23] of 3.1 µg/mL (≈ 9.47 µM) and an MIC [17, 24] of 3.1 µg/mL (≈ 9.47 µM). The MIC [17, 25] was 0.8 µg/mL (≈ 2.44 µM), the MIC [17, 26] was 1.6 µg/mL (≈ 4.89 µM) and the MIC [17, 27] was 0.8 µg/mL (≈ 2.44 µM). The MIC [17, 28] was 0.8 µg/mL (≈ 2.44 µM), the fraction unbound at 2 h ([18]; 10% human serum) was 0.918 and the fraction unbound at 2 h ([18]; 20% human serum) was 1. It also gave a fraction unbound at 2 h ([18]; 100% human serum) of 1.

`CC1CCc2cc(F)cc3c(=O)c(C(=O)O)cn1c23` (stereo not drawn) [F] showed an MIC ([1]; inoculum 1 × 10^6 cells/ml) of 0.4 µg/mL (≈ 1.53 µM), an MIC ([1]; inoculum 1 × 10^8 cells/ml) of 0.8 µg/mL (≈ 3.06 µM) and an MIC (Hafnia alvei IFO 3731; IFO3731, inoculum 1 × 10^6 cells/ml, read-out: Minimum Inhibitory Concentration) of 125 µg/mL (≈ 478 µM). The MIC (Hafnia alvei IFO 3731; IFO3731, inoculum 1 × 10^8 cells/ml, read-out: Minimum Inhibitory Concentration) was 25 µg/mL (≈ 95.7 µM), the MIC ([2]; ATCC10145, inoculum 1 × 10^6 cells/ml, read-out: Minimum Inhibitory Concentration) was 12.5 µg/mL (≈ 47.8 µM) and the MIC ([2]; ATCC10145, inoculum 1 × 10^8 cells/ml, read-out: Minimum Inhibitory Concentration) was 25 µg/mL (≈ 95.7 µM). The MIC ([3]; NCTC10490, inoculum 1 × 10^6 cells/ml, read-out: Minimum Inhibitory Concentration) was 12.5 µg/mL (≈ 47.8 µM), the MIC ([3]; NCTC10490, inoculum 1 × 10^8 cells/ml, read-out: Minimum Inhibitory Concentration) was 25 µg/mL (≈ 95.7 µM) and the MIC ([4]; IFO13696, inoculum 1 × 10^6 cells/ml, read-out: Minimum Inhibitory Concentration) was 125 µg/mL (≈ 478 µM). For the same compound, the MIC ([4]; IFO13696, inoculum 1 × 10^8 cells/ml, read-out: Minimum Inhibitory Concentration) was 25 µg/mL (≈ 95.7 µM), the MIC [5, 29] was over 100 µg/mL and the MIC [6, 29] was over 100 µg/mL. It also gave an MIC ([7]; Yersinia enterocolitica, 05, inoculum 1 × 10^8 cells/ml, read-out: Minimum Inhibitory Concentration) of 0.4 µg/mL (≈ 1.53 µM), an MIC [16, 30] of 0.8 µg/mL (≈ 3.06 µM) and an MIC [16, 31] of 0.8 µg/mL (≈ 3.06 µM). It also gave an MIC [16, 32] of 0.8 µg/mL (≈ 3.06 µM), an MIC [16, 33] of 0.8 µg/mL (≈ 3.06 µM) and an MIC [16, 34] of 0.8 µg/mL (≈ 3.06 µM). It also gave an MIC [16, 35] of 0.8 µg/mL (≈ 3.06 µM), an MIC [16, 36] of 1.6 µg/mL (≈ 6.12 µM) and an MIC [16, 37] of 1.6 µg/mL (≈ 6.12 µM). It also gave an MIC [17, 30] of 0.8 µg/mL (≈ 3.06 µM), an MIC [17, 31] of 0.8 µg/mL (≈ 3.06 µM) and an MIC [17, 32] of 0.8 µg/mL (≈ 3.06 µM). For the same compound, the MIC [17, 33] was 0.8 µg/mL (≈ 3.06 µM), the MIC [17, 34] was 0.8 µg/mL (≈ 3.06 µM) and the MIC [17, 35] was 0.8 µg/mL (≈ 3.06 µM). The MIC [17, 36] was 1.6 µg/mL (≈ 6.12 µM) and the MIC [17, 37] was 1.6 µg/mL (≈ 6.12 µM).
